In patent publication US5292892A, “Anti-bacterial compound and pharmaceutical compositions thereof” (Sankyo Company, Limited, priority 1991, dated 1994):
Converted amounts (≈) assume the structure as drawn.

Experiments:
[1] = system: Mycoplasma bovis Donetta; experiment: Antimycoplasmal activity (MIC); assay type: cell-based; details: Mycoplasmopsis bovis, 120 h; Chanock medium, 20% horse serum; 37° C., 5 days, slightly aerobic; 0.005 ml of 10^5 CFU/ml
[2] = system: Mycoplasma gallisepticum S-6; experiment: Antimycoplasmal activity (MIC); assay type: cell-based; details: Mycoplasmoides gallisepticum, S6, 120 h; Chanock medium, 20% horse serum; 37° C., 5 days, slightly aerobic; 0.005 ml of 10^5 CFU/ml
[3] = system: Mycoplasma gallisepticum PG-31; experiment: Antimycoplasmal activity (MIC); assay type: cell-based; details: Mycoplasmoides gallisepticum, PG31, 120 h; Chanock medium, 20% horse serum; 37° C., 5 days, slightly aerobic; 0.005 ml of 10^5 CFU/ml
[4] = system: Mycoplasma hyosynoviae S-16; experiment: Antimycoplasmal activity (MIC); assay type: cell-based; details: S16, 120 h, Mucin PPLO agar medium, 15% horse serum, 37° C., 5 days, slightly aerobic, 0.005 ml of 10^5 CFU/ml
Protocol: (§1) Following the procedure as described below, the activity of thiomarinol was assayed against various species of mycoplasma.
M. hyosynoviae Mucin PPLO* agar medium (15%
horse serum supplemented)
(§2) 37° C., 5 days, slightly aerobic
(§3) (BBL gas pack method [cultivation
(§4) in disposable CO2 generator from
(§5) Becton Dickinson Microbiology
(§6) Systems, Cockeysville, MD 2103
*PPLO ( -- Pleuro -- Pneumonia- -- Like
PPLO Broth without CV (Difco)
Mucin bacteriological (Difco)
Agar Noble (Difco) 12 g
25% Fresh yeast extract 50 ml

[5] = system: Serratia marcescens 1184; experiment: MIC, agar medium dilution method; assay type: cell-based; details: nutrient agar
Protocol: (§7) The minimum inhibitory concentration (MIC) of thiomarinol, given as μg/ml, against gram-positive and gram-negative bacteria was determined by the agar medium dilution method, using a nutrient agar medium (Product of Eiken Chemical Co., Ltd.).

[6] = system: Staphylococcus aureus 535 (MRSA); experiment: MIC, agar medium dilution method; assay type: cell-based; details: nutrient agar
Protocol: as §7

[7] = system: Klebsiella pneumoniae 806; experiment: MIC, agar medium dilution method; assay type: cell-based; details: nutrient agar
Protocol: as §7

[8] = system: Enterococcus faecalis 681; experiment: MIC, agar medium dilution method; assay type: cell-based; details: nutrient agar
Protocol: as §7

[9] = system: Proteus vulgaris 1420; experiment: MIC, agar medium dilution method; assay type: cell-based; details: nutrient agar
Protocol: as §7

[10] = system: Salmonella enteritidis; experiment: MIC, agar medium dilution method; assay type: cell-based; details: Salmonella enterica, nutrient agar
Protocol: as §7

[11] = system: Pseudomonas aeruginosa N07; experiment: MIC, agar medium dilution method; assay type: cell-based; details: nutrient agar
Protocol: as §7

[12] = system: Staphylococcus aureus 56R; experiment: MIC, agar medium dilution method; assay type: cell-based; details: nutrient agar
Protocol: as §7

[13] = system: Escherichia coli 609; experiment: MIC, agar medium dilution method; assay type: cell-based; details: nutrient agar
Protocol: as §7

[14] = system: Klebsiella pneumoniae 846 (R); experiment: MIC, agar medium dilution method; assay type: cell-based; details: nutrient agar, (R) strain
Protocol: as §7

[15] = system: Pseudomonas aeruginosa 1001; experiment: MIC, agar medium dilution method; assay type: cell-based; details: nutrient agar
Protocol: as §7

[16] = system: Enterobacter cloacae 963; experiment: MIC, agar medium dilution method; assay type: cell-based; details: nutrient agar
Protocol: as §7

[17] = system: Morganella morganii 1510; experiment: MIC, agar medium dilution method; assay type: cell-based; details: nutrient agar
Protocol: as §7

[18] = system: Escherichia coli NHIJ; experiment: MIC, agar medium dilution method; assay type: cell-based; details: nutrient agar
Protocol: as §7

[19] = system: Staphylococcus aureus 209P; experiment: MIC, agar medium dilution method; assay type: cell-based; details: nutrient agar
Protocol: as §7

[20] = system: Mycoplasma gallisepticum K-1; experiment: Antimycoplasmal activity (MIC); assay type: cell-based; details: Mycoplasmoides gallisepticum, K1, 120 h; Chanock medium, 20% horse serum; 37° C., 5 days, slightly aerobic; 0.005 ml of 10^5 CFU/ml
[21] = Solubility; assay type: physicochemical
[22] = system: Mycoplasma synoviae WVU1853; experiment: Antimycoplasmal activity (MIC); assay type: cell-based; details: Mycoplasmopsis synoviae, WVU1853, 120 h; Frey medium, 12% swine serum; 37° C., 5 days, slightly aerobic; 0.005 ml of 10^5 CFU/ml
Protocol: as §1
M. synoviae Frey medium [prepared as de-
scribed in Am. J. Vet. Res., --29,
as §2, §3, §4, §5, §6

C/C(=C\C(=O)OCCCCCCCC(=O)Nc1c2sscc-2[nH]c1=O)C(O)C1OCC(C/C=C/C(C)C(C)O)C(O)C1O (single isomer, unassigned) [thiomarinol]
MIC [1]: 0.0125 µg/mL (≈ 0.0195 µM)
MIC [2]: 0.1 µg/mL (≈ 0.156 µM)
MIC [3]: 0.05 µg/mL (≈ 0.078 µM)
MIC [4]: 0.025 µg/mL (≈ 0.039 µM)
MIC [5]: 3.1 µg/mL (≈ 4.84 µM)
MIC [6]: ≤ 0.01 µg/mL
MIC [7]: 0.8 µg/mL (≈ 1.25 µM)
MIC [8]: 0.02 µg/mL (≈ 0.0312 µM)
MIC [9]: 0.05 µg/mL (≈ 0.078 µM)
MIC [10]: 0.4 µg/mL (≈ 0.624 µM)
MIC [11]: 0.4 µg/mL (≈ 0.624 µM)
MIC [12]: ≤ 0.01 µg/mL
MIC [13]: 0.8 µg/mL (≈ 1.25 µM)
MIC [14]: 0.2 µg/mL (≈ 0.312 µM)
MIC [15]: 0.2 µg/mL (≈ 0.312 µM)
MIC [16]: 1.5 µg/mL (≈ 2.34 µM)
MIC [17]: 6.2 µg/mL (≈ 9.68 µM)
MIC [18]: 0.8 µg/mL (≈ 1.25 µM)
MIC [19]: ≤ 0.01 µg/mL
MIC [20]: 0.05 µg/mL (≈ 0.078 µM)
Solubility ([21]; alcohols (methanol, ethanol, propanol, butanol), dimethyl sulfoxide, dimethylformamide, chloroform, ethyl acetate, acetone, ethyl ether): Soluble
Solubility ([21]; hexane): insoluble
Solubility ([21]; water): insoluble
MIC [22]: < 0.006 µg/mL
